Like-named read-outs stand apart in the source and are kept apart here.
Molecular target: T1, SIRT1 (Homo sapiens, UniProt Q96EB6)
T1 sequence (Q96EB6 1-747): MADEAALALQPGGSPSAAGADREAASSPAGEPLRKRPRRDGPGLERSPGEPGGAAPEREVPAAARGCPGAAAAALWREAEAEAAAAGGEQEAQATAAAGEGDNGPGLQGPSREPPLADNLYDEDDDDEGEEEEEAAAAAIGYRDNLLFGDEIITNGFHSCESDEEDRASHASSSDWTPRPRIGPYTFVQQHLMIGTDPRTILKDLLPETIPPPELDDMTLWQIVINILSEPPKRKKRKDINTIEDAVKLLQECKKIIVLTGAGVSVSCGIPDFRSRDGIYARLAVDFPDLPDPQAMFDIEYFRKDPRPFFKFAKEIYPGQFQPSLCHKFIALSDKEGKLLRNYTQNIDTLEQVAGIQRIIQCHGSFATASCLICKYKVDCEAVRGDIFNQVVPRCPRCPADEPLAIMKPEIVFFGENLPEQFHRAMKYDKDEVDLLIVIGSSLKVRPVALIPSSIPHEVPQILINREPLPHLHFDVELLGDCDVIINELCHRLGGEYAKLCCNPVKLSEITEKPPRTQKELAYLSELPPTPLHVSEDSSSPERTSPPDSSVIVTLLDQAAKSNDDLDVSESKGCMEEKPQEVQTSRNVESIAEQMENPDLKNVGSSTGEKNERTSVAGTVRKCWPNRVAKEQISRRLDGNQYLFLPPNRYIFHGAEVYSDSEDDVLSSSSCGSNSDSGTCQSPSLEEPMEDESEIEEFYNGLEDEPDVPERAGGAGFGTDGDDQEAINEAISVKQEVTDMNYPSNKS
Test: Trp mass spectrometry assay of SIRT1 activation
Format: biochemical
Details: for TRP Activity (EC1.5): EC1.5 = concentration that results in 150% activation of SIRT1
Summary of the method: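 Activation read-out: mass-spec measurement of O-acetyl-ADP-ribose or deacetylated Trp peptide versus compound-free controls, giving EC1.5 and Percent Maximum Activation. Reactions ran 25 min at 25 °C, pH 7.5, with 120 μM βNAD+, 0.5 μM acetylated p53-derived peptide and 10 nM His-tagged SIRT1.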

[1] = Trp peptide assay, maximum activity relative to control (100%), read-out: TRP MAX RESP (percent maximum fold activation)
[2] = Trp mass spectrometry assay, EC1.5 = concentration of test compound that results in 150% activation of SIRT1
[3] = concentration giving 150% activation of SIRT1, Trp peptide substrate
[4] = Trp mass spectrometry assay, concentration of test compound giving 150% activation of SIRT1

For COCC(NC(=O)c1ccc2c(n1)N(C(=O)Nc1ccccn1)[C@H]1CCN2C1)C(F)(F)F (stereo partly drawn) [(9S)-8-N-(pyridin-2-yl)-5-N-(1,1,1-trifluoro-3-methoxypropan-2-yl)-1,6,8-triazatricyclo[7.2.1.0^{2,7}]dodeca-2(7),3,5-triene-5,8-dicarboxamide], the “TRP Activity (EC1.5)” value (Trp peptide assay) was “A (A (EC1.5<1 μM))” and the Emax [1] was > 150%.

For O=C(Nc1ccncn1)N1c2nc(-c3cccc(N4CCOCC4)c3)ccc2N2CCC[C@H]1C2 [Example 529], the “Tryp AVG EC1.5 (μM)” value [2] was “B (B (EC1.5 1-25 μM))”.

For CS(=O)(=O)c1cccc(-c2ccc3c(n2)N(C(=O)Nc2cncc(-c4cnco4)c2)[C@H]2CCN3C2)c1 [Example 724], the “Tryp AVG EC1.5 (μM)” value [3] was “A (A (EC1.5<1 μM))”.

For O=C(Nc1cccc(-c2cnco2)c1)N1c2nc(N3CCC[C@@H](C(F)(F)F)C3)ccc2N2CC[C@H]1C2 [Example 717], the “Tryp AVG EC1.5 (μM)” value [3] was “A (A (EC1.5<1 μM))”.

For C[C@@H]1CN(c2ccc3c(n2)N(C(=O)Nc2cnccn2)[C@H]2CCN3C2)CCO1 [(9S)-5-[(2R)-2-methylmorpholin-4-yl]-N-(pyrazin-2-yl)-1,6,8-triazatricyclo[7.2.1.0 {2,7}]dodeca-2,4,6-triene-8-carboxamide], the “TRP Activity (EC1.5)” value (Trp peptide assay) was “B (B (EC1.5 1-25 μM))” and the Emax [1] was > 150%.

In the case of O=C(Nc1nnc(-c2ccccn2)o1)N1c2nc(-c3cccc(C(F)(F)F)c3)ccc2N2CC[C@H]1C2 [Example 720], the “Tryp AVG EC1.5 (μM)” value [3] is reported as “A (A (EC1.5<1 μM))”.

With COc1cc(NC(=O)N2c3nc(-c4ccnc(N5CCC(C(F)(F)F)C5)c4)ccc3N3CC[C@H]2C3)ncn1 (stereo partly shown) [Example 368] the “Tryp AVG EC1.5 (μM)” value [4] was “B (B (EC1.5 1-25 μM))”.

With CC(C)(C)OC(=O)N1CCCN(c2ccc3c(n2)N(C(=O)Nc2ccncn2)[C@H]2CCCN3C2)CC1 [Example 382] the “Tryp AVG EC1.5 (μM)” value [4] was “C (C (EC1.5>25 μM))”.

In the case of N#Cc1ccccc1-c1ccc2c(n1)N(C(=O)Nc1cnccn1)[C@H]1CCCN2C1 [Example 450], the “Tryp AVG EC1.5 (μM)” value [2] is reported as “B (B (EC1.5 1-25 μM))”.

For O=C(Nc1ccccn1)N1c2nc(-c3cccnc3)ccc2N2CCC[C@H]1C2 [Example 441], the “Tryp AVG EC1.5 (μM)” value [2] was “B (B (EC1.5 1-25 μM))”.

In the case of COc1cc(NC(=O)N2c3nc(-c4cncc(C(F)(F)F)c4)ccc3N3C[C@@H](O)[C@H]2C3)nc(OC)n1 [Example 704], the “Tryp AVG EC1.5 (μM)” value [3] is reported as “B (B (EC1.5 1-25 μM))”.

In the case of Cn1cc(-c2ccc3c(n2)N(C(=O)Nc2ccccn2)[C@H]2CCN3C2)cn1 [Example 349], the “Tryp AVG EC1.5 (μM)” value [4] is reported as “B (B (EC1.5 1-25 μM))”.

For Cc1nn(C)c(C)c1-c1ccc2c(n1)N(C(=O)Nc1cccnc1)[C@H]1CCN2C1 [Example 486], the “Tryp AVG EC1.5 (μM)” value [2] was “C (C (EC1.5>25 μM))”.

In the case of O=C(Nc1cnccn1)N1c2nc(-c3cncc(Cl)c3)ccc2N2CCC[C@H]1C2 [Example 417], the “Tryp AVG EC1.5 (μM)” value [4] is reported as “A (A (EC1.5<1 μM))”.

Cc1ccc(-c2ccc3c(n2)N(C(=O)NCC(C)(C)C)[C@H]2CCN3C2)cn1 [(9S)-N-(2,2-dimethylpropyl)-5-(6-methylpyridin-3-yl)-1,6,8-triazatricyclo[7.2.1.0 {2,7}]dodeca-2(7),3,5-triene-8-carboxamide] was tested, and the “TRP Activity (EC1.5)” value (Trp peptide assay) was “C (C (EC1.5>25 μM))” and the Emax [1] was < 150%.

O=C(Nc1ccc(F)cn1)N1c2nc(N3CCCC(C(F)(F)F)C3)ccc2N2CCC[C@@H]1C2 (stereo partly shown) [Example 362] was tested, and the “Tryp AVG EC1.5 (μM)” value [4] was “C (C (EC1.5>25 μM))”.

For O=C(Nc1ccccn1)N1c2nc(N3CCC[C@H](C(F)(F)F)C3)ccc2N2CC[C@H]1C2 [(9S)-N-(pyridin-2-yl)-5-[(3S)-3-(trifluoromethyl)piperidin-1-yl]-1,6,8-triazatricyclo[7.2.1.0 {2,7}]dodeca-2,4,6-triene-8-carboxamide], the “TRP Activity (EC1.5)” value (Trp peptide assay) was “B (B (EC1.5 1-25 μM))” and the Emax [1] was > 150%.

In the case of CCCn1cc(-c2cccc(NC(=O)N3c4nc(-c5cccc(C(F)(F)F)c5)ccc4N4CC[C@H]3C4)n2)cn1 [Example 656], the “Tryp AVG EC1.5 (μM)” value [3] is reported as “A (A (EC1.5<1 μM))”.

For CC(C)n1cc(-c2ccc3c(n2)N(C(=O)Nc2cnccn2)[C@H]2CCN3C2)cn1 [(9S)-5-[1-(propan-2-yl)-1H-pyrazol-4-yl]-N-(pyrazin-2-yl)-1,6,8-triazatricyclo[7.2.1.0 {2,7}]dodeca-2,4,6-triene-8-carboxamide], the “TRP Activity (EC1.5)” value (Trp peptide assay) was “A (A (EC1.5<1 μM))” and the Emax [1] was > 150%.

In the case of Cc1cc(-c2ccc3c(n2)N(C(=O)Nc2cccnn2)[C@H]2CCCN3C2)ccn1 [(9S)-5-(2-methylpyridin-4-yl)-N-(pyridazin-3-yl)-1,6,8-triazatricyclo[7.3.1.0 {2,7}]trideca-2(7),3,5-triene-8-carboxamide], the “TRP Activity (EC1.5)” value (Trp peptide assay) is reported as “A (A (EC1.5<1 μM))” and the Emax [1] is reported as > 150%.

In the case of COc1cc(NC(=O)N2c3nc(-c4ccnc(N5CC[C@@H](F)C5)c4)ccc3N3CC[C@H]2C3)ncn1 [Example 424], the “Tryp AVG EC1.5 (μM)” value [2] is reported as “B (B (EC1.5 1-25 μM))”.

For O=C(Nc1ccc(F)cn1)N1c2nc(-c3cccc(C(F)(F)F)n3)ccc2N2CC[C@H]1C2 [Example 340], the “Tryp AVG EC1.5 (μM)” value [4] was “B (B (EC1.5 1-25 μM))”.

With C[C@H]1CN(c2ccc3c(n2)N(C(=O)Nc2cnccn2)[C@H]2CCN3C2)C[C@H](C)O1 [(9S)-5-[(2S,6S)-2,6-dimethylmorpholin-4-yl]-N-(pyrazin-2-yl)-1,6,8-triazatricyclo[7.2.1.0^{2,7}]dodeca-2(7),3,5-triene-8-carboxamide] the “TRP Activity (EC1.5)” value (Trp peptide assay) was “B (B (EC1.5 1-25 μM))” and the Emax [1] was > 150%.

In the case of Cc1ncc(-c2ccc3c(n2)N(C(=O)Nc2cccnc2)[C@H]2CCN3C2)cc1F [(9S)-5-(5-fluoro-6-methylpyridin-3-yl)-N-(pyridin-3-yl)-1,6,8-triazatricyclo[7.2.1.0 {2,7}]dodeca-2(7),3,5-triene-8-carboxamide], the “TRP Activity (EC1.5)” value (Trp peptide assay) is reported as “B (B (EC1.5 1-25 μM))” and the Emax [1] is reported as > 150%.

With O=C(Nc1ccncn1)N1c2nc(-c3cccc(C(F)(F)F)c3)ccc2N2C[C@@H](O)[C@H]1C2 [Example 669] the “Tryp AVG EC1.5 (μM)” value [3] was “B (B (EC1.5 1-25 μM))”.

For COC(=O)c1cc(-c2ccc3c(n2)N(C(=O)Nc2cnccn2)[C@H]2CCN3C2)ccn1 [methyl 4-[(9S)-8-[(pyrazin-2-yl)carbamoyl]-1,6,8-triazatricyclo[7.2.1.0 {2,7}]dodeca-2(7),3,5-trien-5-yl]pyridine-2-carboxylate], the “TRP Activity (EC1.5)” value (Trp peptide assay) was “B (B (EC1.5 1-25 μM))” and the Emax [1] was > 150%.

In the case of O=C(Nc1cccc(-c2cnco2)n1)N1c2nc(-c3cccc(C(F)(F)F)c3)ccc2N2CCC1CC2 [Example 596], the “Tryp AVG EC1.5 (μM)” value [2] is reported as “A (A (EC1.5<1 μM))”.

With Cc1cc(-c2ccc3c(n2)N(C(=O)Nc2cnccn2)[C@H]2CCN3C2)cc(C(F)(F)F)n1 [(9S)-5-[2-methyl-6-(trifluoromethyl)pyridin-4-yl]-N-(pyrazin-2-yl)-1,6,8-triazatricyclo[7.2.1.0 {2,7}]dodeca-2(7),3,5-triene-8-carboxamide] the “TRP Activity (EC1.5)” value (Trp peptide assay) was “A (A (EC1.5<1 μM))” and the Emax [1] was > 150%.

For CC(C)(C)OC(=O)NCc1cnnn1-c1cccc(NC(=O)N2c3nc(-c4cccc(C(F)(F)F)c4)ccc3N3CC[C@H]2C3)c1 [Example 638], the “Tryp AVG EC1.5 (μM)” value [3] was “A (A (EC1.5<1 μM))”.

In the case of CN(C)c1ccc(-c2ccc3c(n2)N(C(=O)Nc2cnccn2)[C@H]2CCN3C2)cn1 [Example 458], the “Tryp AVG EC1.5 (μM)” value [2] is reported as “B (B (EC1.5 1-25 μM))”.

For O=C(Nc1cccc(C2=CCOCC2)n1)N1c2nc(-c3cccc(C(F)(F)F)c3)ccc2N2CC[C@H]1C2 [Example 658], the “Tryp AVG EC1.5 (μM)” value [3] was “A (A (EC1.5<1 μM))”.

With Cn1cc(-c2ccc3c(n2)N(C(=O)Nc2cnccn2)[C@H]2CCN3C2)ccc1=O [(9S)-5-(1-methyl-6-oxo-1,6-dihydropyridin-3-yl)-N-(pyrazin-2-yl)-1,6,8-triazatricyclo[7.2.1.0^2,7]dodeca-2(7),3,5-triene-8-carboxamide] the “TRP Activity (EC1.5)” value (Trp peptide assay) was “C (C (EC1.5>25 μM))” and the Emax [1] was < 150%.

For O=C(Nc1cnccn1)N1c2cc(N3CCCC(C(F)(F)F)C3)ccc2N2CCC[C@H]1C2 (stereo partly shown), the “TRP Activity (EC1.5)” value (Trp peptide assay) was “A (A (EC1.5<1 μM))” and the Emax [1] was > 150%.

For Cc1ccncc1-c1ccc2c(n1)N(C(=O)Nc1cccnc1)[C@H]1CCCN2C1 [Example 516], the “Tryp AVG EC1.5 (μM)” value [2] was “B (B (EC1.5 1-25 μM))”.

Cc1ccncc1-c1ccc2c(n1)N(C(=O)Nc1cnccn1)[C@H]1CCCN2C1 [Example 513] was tested, and the “Tryp AVG EC1.5 (μM)” value [2] was “C (C (EC1.5>25 μM))”.

CS(=O)(=O)c1cncc(-c2ccc3c(n2)N(C(=O)Nc2cccnn2)[C@H]2CCCN3C2)c1 [Example 380] was tested, and the “Tryp AVG EC1.5 (μM)” value [4] was “A (A (EC1.5<1 μM))”.

For Cc1ccncc1-c1ccc2c(n1)N(C(=O)Nc1nc(C)c(C)s1)[C@H]1CCCN2C1 [Example 508], the “Tryp AVG EC1.5 (μM)” value [2] was “C (C (EC1.5>25 μM))”.

O=C(Nc1cccnc1)N1c2nc(-c3cncc(C(F)(F)F)c3)ccc2N2CC[C@H]1C2 [Example 392] was tested, and the “Tryp AVG EC1.5 (μM)” value [4] was “A (A (EC1.5<1 μM))”.

NCCCc1cc(NC(=O)N2c3nc(-c4cccc(C(F)(F)F)c4)ccc3N3CCC[C@H]2C3)cc(-c2cnco2)c1 [Example 770] was tested, and the “Tryp AVG EC1.5 (μM)” value [3] was “A (A (EC1.5<1 μM))” and the Emax (percent maximum fold activation of SIRT1, Trp peptide substrate, read-out: Tryp % Fold Act) was > 150%.
